{"source": "patent US9075045B2", "about": "“Cell-based detection of APF through its interaction with CKAP4 for diagnosis of interstitial cystitis” (THE COMMONWEALTH MEDICAL COLLEGE, priority 2008, dated 2015)", "origin": "cited, not measured here", "note": "Like-named read-outs stand apart in the source and are kept apart here.", "data": [{"compound": "C[S+](C)[O-]", "note": "[dimethyl sulfoxide]", "values": [{"measurement": "effect on IC symptoms", "setting": "bladder instillation every week or two for 6 to 8 weeks", "result": "improve symptoms temporarily"}]}, {"compound": "Bacillus Calmette-Guerin", "values": [{"measurement": "effect on IC symptoms", "setting": "intravesicular agent", "result": "improve symptoms"}]}, {"compound": "Pentosan polysulfate sodium", "values": [{"measurement": "improved symptoms in % of patients", "setting": "given orally (100 mg three times a day)", "result": 30, "unit": "%"}]}]}
